Assay results as given in publication PMC6222780, “Synthesis, Spectroscopic Analysis and Assessment of the Biological Activity of New Hydrazine and Hydrazide Derivatives of 3-Formylchromone” (Molecules : A Journal of Synthetic Chemistry and Natural …, 2018).

Assays:
[1] = tested on: Staphylococcus epidermidis ATCC 12228; experiment: Disc diffusion, inhibition of growth zones; type: cell-based; conditions: S. epidermidis; discs at 100 or 200 µg/mL, 24 h at 37 °C
Experimental: (§1) Fifteen strains of microorganisms from different species were used. The growth inhibition zones were evaluated in two independent experiments (n = 2 in each of them), and the potential inhibitors of microbial growth are presented in Table 3. The hydrazine and hydrazide derivatives of 3-formylchromone constitute a class of potential antimicrobial agents and are worthy of further investigation. […] In case of N. meningitidis (result with *) the action of 9 was noted just for 100 µg/mL and the influence in concentration of 200 µg/mL was not observed.
(§2) The microbial reference strains representing different families of bacteria and fungi, pathogenic for man and animals, were used. The 15 strains were derived from international microbial collections held by the Department of Pharmaceutical Microbiology and Microbiological Diagnostics of the Medical University of Lodz: Candida albicans ATCC 10231, Enterococcus faecalis ATCC 29212, Klebsiella pneumoniae ATCC 700603, Pseudomonas aeruginosa NCTC 6749, Proteus vulgaris CCM 1799, Staphylococcus epidermidis ATCC 12228, Shigella flexneri ATCC 12022, Streptococcus pneumoniae ATCC 49619, Streptococcus pyogenes ATCC 19615, Corynebacterium jeikeium K411, Escherichia coli ATCC 25922, Staphylococcus aureus NCTC 4135, Streptococcus dysgalactiae subsp. equisimilis ATCC 12394, Neisseria meningitidis DSM 25942, Listeria monocytogenes PCM 2191.
(§3) The strains were stored at −80 °C, frozen in a 1:1 mixture of Brain Heart Infusion (BHI) broth and glycerol. The reference strains, depending on the growth requirements, were grown on a solid medium—nutrient agar, nutrient agar with 5% addition of lambs defibrinated blood or (in the case of Corynebacterium jeikeium) Triptic Soy Agar (TSA) with the addition of sheep blood, yeast extract and Tween-80. The susceptibility of the strains to chemical compounds was measured analogously to the adopted method of diffusion and disc preparation of antibiotics for compounds introduced into treatment. After receiving the pure culture of the reference strain, obtained from frozen samples and grown on the appropriate medium for growth requirements, suspensions of the tested strains were prepared in a physiological NaCl solution with a density of 0.5 on the McFarland scale. These suspensions were seeded with a cotton ball over the entire surface of the test medium. Discs impregnated with the test compound at a concentration of 100 or 200 µg/mL were then placed on it and incubated for 24 h at 37 °C.

[2] = tested on: L929 cell line (mouse fibroblast cell line); experiment: XTT assay, cell proliferation study; type: cell-based; conditions: for IC50 / The Range of Influence [%, Control = 100%] / Stimulating effect on proliferation: L929, XTT; for IC50: 24 h incubation, 0.01–1250 µmol/L; for The Range of Influence [%, Control = 100%]: viability over 0.01–1250 µmol/L
Experimental: (§4) Four independent experiments (n = 4 for each used concentration) were performed. […] This indicates good or very good (in the case of 1, 3, 5, 8, 11) selectivity of action. […] Due to the dual action of these compounds, it would be advisable to study their effect on stimulation of proliferation at concentrations below 0.01 μmol/L. This dual action may be desirable during therapy, because the dosage may affect the nature of the compounds.
The mouse fibroblast cell line L929 (Sigma-Aldrich) was grown in MEM (Minimum Essential Medium) (Biowest, Nuaillé, France) containing 10% of Fetal Bovine Serum (Biowest), 1 mmol/L sodium pyruvate (Biological Industries, Cromwell, CT, USA), 0.5 mmol/L non-essential amino acids (Sigma-Aldrich) and 100 units/mL penicillin with […] streptomycin (Biological Industries) in an incubator at 37 °C with 5% CO2. Cells were plated and grown to 80% confluence before the initiation of the assay.
(§5) The XTT assay was used to evaluate cell metabolic activity. […] The number of viable cells is correlated with the colour intensity determined by photometric measurements. XTT (Serva, Heidelberg, Germany) was dissolved in MEM without phenol red (PAN-Biotech, Aidenbach, Germany) or DMEM without phenol red (PAN-Biotech) at a concentration of 1 mg/mL. Phenazine metosulphate (PMS) (Serva) was dissolved in phosphate-buffered saline (PBS, 5 mmol/L). PMS solution was then added to the XTT solution at a concentration of 25 μM. Investigated compounds were dissolved in dimethyl sulfoxide (DMSO) to obtain stock solutions.
(§6) L929 and EA.hy926 cells were seeded into 96-well plates at a density of 1 × 10^4 cells per well. They were cultured for 24 h in the incubator (37 °C and 5% CO2). After that time, the medium was removed. Then the 100 µL of medium containing investigated compounds (in the range of concentration 0.01–1250 µmol/L) or only culture medium (blank control) were added. Cisplatin was used as a reference compound. Cells were further incubated for 24 h. At the third day, the old medium were removed and cells were washed with PBS. 100 µL of culture medium with the additional 50 µL of the XTT/PMS solution were added to each well. Plates were incubated in the dark for 3 h at 37 °C. Then, the plates were swayed and an aliquot of 100 µL from each well was transferred into the corresponding well of a new plate. Finally, the absorbance was measured by using the microplate reader (Synergy H1, BioTek, Winooski, VT, USA) at a wavelength of 450 nm. The cell viability was expressed as a percentage of the control values (blanks).

[3] = tested on: EA.hy926 cell line (the human umbilical vein, somatic cell hybrid); experiment: XTT assay, cell proliferation study; type: cell-based; conditions: for IC50 / The Range of Influence [%, Control = 100%] / Stimulating effect on proliferation: EA.hy926, XTT; for IC50: 24 h incubation, 0.01–1250 µmol/L; for The Range of Influence [%, Control = 100%]: viability over 0.01–1250 µmol/L; for Selectivity of action (IC50 EA.hy926 versus L929): IC50 lower for EA.hy926 than for L929
Experimental: as §4
The EA.hy926 cell line (the human umbilical vein, somatic cell hybrid, American Type Culture Collection, Manassas, VA, USA) was used to evaluate the cytotoxicity of novel compounds. Cells were grown in Dulbecco’s Modified Eagle’s Medium (DMEM) which contains 10% of Fetal Bovine Serum (Biowest), 2 mmol/L glutamine (Sigma-Aldrich) and 100 units/mL penicillin with […] streptomycin (Biological Industries). Cells were plated and grown in an incubator at 37 °C with 5% CO2 to 80% confluence before the initiation of the assay.
as §5, §6

[4] = tested on: Fifteen strains of microorganisms from different species; experiment: Initial antimicrobial screening by disc diffusion on the whole panel; type: cell-based; conditions: 15 strains, discs at 100 or 200 µg/mL
Experimental: as §1, §2, §3

[5] = tested on: Staphylococcus aureus NCTC 4135; experiment: Disc diffusion, inhibition of growth zones; type: cell-based; conditions: S. aureus; discs at 100 or 200 µg/mL, 24 h at 37 °C
Experimental: as §1, §2, §3

[6] = tested on: Streptococcus pyogenes ATCC 19615; experiment: Disc diffusion, inhibition of growth zones; type: cell-based; conditions: S. pyogenes; discs at 100 or 200 µg/mL, 24 h at 37 °C
Experimental: as §1, §2, §3

[7] = tested on: Streptococcus pneumoniae ATCC 49619; experiment: Disc diffusion, inhibition of growth zones; type: cell-based; conditions: S. pneumoniae; discs at 100 or 200 µg/mL, 24 h at 37 °C
Experimental: as §1, §2, §3

[8] = tested on: Neisseria meningitidis DSM 25942; experiment: Disc diffusion, inhibition of growth zones; type: cell-based; conditions: N. meningitidis
Experimental: as §1, §2, §3

Row | Compound | Inhibition of growth zones (lowest effective studied concentration) [1] | IC50 [2] | The Range of Influence [%, Control = 100%] [2] | IC50 [3] | The Range of Influence [%, Control = 100%] [3] | Inhibition of microbial growth (result in words) [4] | Selectivity of action (IC50 EA.hy926 versus L929) [3] | Inhibition of growth zones (lowest effective studied concentration) [5] | Inhibition of growth zones (lowest effective studied concentration) [6] | IC50 value lower than ligand 5 ([2]; L929, complex 11 compared with ligand 5) | IC50 value lower than ligand 5 ([3]; EA.hy926, complex 11 compared with ligand 5) | IC50 ([2]; Mus musculus) | melting point | Stimulating effect on proliferation [3] | Inhibition of growth zones (lowest effective studied concentration) [7] | Stimulating effect on proliferation [2] | Influence on growth at 200 µg/mL ([8]; disc at 200 µg/mL) | Inhibition of growth zones (lowest effective studied concentration) ([8]; discs at 100 or 200 µg/mL, 24 h at 37 °C)
1 | O=c1c(C=NNc2ccccc2C(F)(F)F)coc2ccccc12 [Compound 10, 3-[(2-Trifluoromethylphenyl)-hydrazonomethyl]-chromen-4-one] | 100 µg/mL | 1210 µM | 48.62–73.47% | 645 µM | 31.21–94.69% | exhibit antimicrobial potential | – | – | – | – | – | – | – | – | – | – | – | –
2 | O=c1c(C=NNc2c(F)cc(F)cc2F)coc2ccccc12 [Compound 8, 3-[(2,4,6-Trifluorophenyl)-hydrazonomethyl]-chromen-4-one] | – | 98.5 µM | 38.11–64.40% | 18.1 µM | 23.31–63.94% | not able to inhibit microbial growth | very good | – | – | – | – | – | – | – | – | – | – | –
3 | Complex of 4-Fluorobenzoic acid [1-(4-oxo-4H-chromen-3-yl)-meth-(E)-ylidene]-hydrazide with Cu (II) [Compound 11] | 100 µg/mL | 35 µM | 10.30–75.02% | – | 8.58–53.23% | exhibit antimicrobial potential | very good | 100 µg/mL | 200 µg/mL | 46.89% | 77.78% | – | – | – | – | – | – | –
4 | O=C(N/N=C/c1coc2ccccc2c1=O)c1ccc(F)cc1 [Compound 5, 4-Fluorobenzoic acid [1-(4-oxo-4H-chromen-3-yl)-meth-(E)-ylidene]-hydrazide] | – | – | 16.03–56.35% | – | 11.81–60.64% | not able to inhibit microbial growth | very good | – | – | – | – | 65.9 µM | 201 to 202 °C | – | – | – | – | –
5 | N.N.[Cl][Pt][Cl] [Cisplatin, reference compound] | – | 74.4 µM | 8.49–55.70% | 67.4 µM | 8.71–75.14% | – | – | – | – | – | – | – | – | – | – | – | – | –
6 | O=c1c(C=NNc2ccc(C(F)(F)F)cc2)coc2ccccc12 [Compound 3, 3-[(4-Trifluoromethylphenyl)-hydrazonomethyl]-chromen-4-one] | – | – | 55.91–96.98% | 975 µM | 37.40–101.33% | not able to inhibit microbial growth | very good | – | – | – | – | – | – | slightly stimulated | – | – | – | –
7 | O=c1c(C=NNc2c(F)c(F)cc(F)c2F)coc2ccccc12 [Compound 6, 3-[(2,3,5,6-Tetrafluorophenyl)-hydrazonomethyl]-chromen-4-one] | – | 728 µM | 40.05–93.11% | 578 µM | 24.47–97.86% | not able to inhibit microbial growth | – | – | – | – | – | – | – | – | – | – | – | –
8 | Cc1ccc(F)cc1NN=Cc1coc2ccccc2c1=O [Compound 7, 3-[(5-Fluoro-2-methylphenyl)-hydrazonomethyl]-chromen-4-one] | 100 µg/mL | 954 µM | 44.89–96.11% | 953 µM | 42.43–101.05% | exhibit antimicrobial potential | – | – | – | – | – | – | – | slightly stimulated | – | – | – | –
9 | O=c1c(C=NNc2cc(F)ccc2F)coc2ccccc12 [Compound 1, 3-[(2,5-Difluorophenyl)-hydrazonomethyl]-chromen-4-one] | – | 209 µM | 27.64–101.8% | 59.1 µM | 14.79–106.26% | exhibit antimicrobial potential | very good | – | – | – | – | – | – | weak stimulating effect | 100 µg/mL | weak stimulating effect | – | –
10 | O=c1c(C=NNc2cc(C(F)(F)F)cc(C(F)(F)F)c2)coc2ccccc12 [Compound 4, 3-[(3,5-Bis-trifluoromethylphenyl)-hydrazonomethyl]-chromen-4-one] | 100 µg/mL | 1030 µM | 45.61–101.31% | 534 µM | 28.46–102.18% | exhibit antimicrobial potential | – | – | – | – | – | – | – | weak stimulating effect | – | weak stimulating effect | – | –
11 | O=c1c(C=NNc2c(F)c(F)c(F)c(F)c2F)coc2ccccc12 [Compound 9, 3-(Pentafluorophenyl-hydrazonomethyl)-chromen-4-one] | – | 386 µM | 13.92–85.11% | 253 µM | 13.15–69.88% | exhibit antimicrobial potential | – | – | – | – | – | – | – | – | – | – | not observed | 100 µg/mL
